Patent US20250145619A1, “KHK INHIBITOR, PREPARATION METHOD THEREFOR AND USE THEREOF” (YOUNGENE THERAPEUTICS CO., LTD, priority 2022, published 2025)

Biological target: KHK—C (Homo sapiens (Human), UniProt P50053)
Assay: KHK—C ADP-Glo kinase inhibitory activity assay
Assay type: biochemical
Conditions: 1 nM KHK—C, 200 μM D-Fructose, 100 μM ATP, ADP-Glo luminescence
Excerpt: (KHK—C ADP-Glo Kinase Inhibitory Activity Assay)
Y=Bottom+(Top−Bottom)/(1+10^((LogIC50−X)×HillSlope)) • X: Log value of compound concentration • Y: Inhibition ratio (%)
[formula] • Negative control: DMSO

Sequence of KHK—C (P50053 whole entry): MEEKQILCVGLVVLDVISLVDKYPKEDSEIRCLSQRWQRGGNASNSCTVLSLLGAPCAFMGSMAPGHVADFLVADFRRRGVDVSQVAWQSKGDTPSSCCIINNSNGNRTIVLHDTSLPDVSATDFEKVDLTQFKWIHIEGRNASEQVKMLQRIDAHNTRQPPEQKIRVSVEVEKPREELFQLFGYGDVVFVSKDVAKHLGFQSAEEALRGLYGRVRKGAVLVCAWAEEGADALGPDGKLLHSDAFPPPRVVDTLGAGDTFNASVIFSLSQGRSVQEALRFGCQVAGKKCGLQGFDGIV

SMILES	IC50 [nM]
C[C@H]1CCN1c1nc(N2CC[C@H](CC(=O)O)C2)cc2nccnc12 [Example 41, 2-((R)-1-(5-((S)-2-methylazetidine-1-yl)pyridino[3,4-b]pyrazin-7-yl)pyrrolidin-3-yl)acetic acid]	3940
C[C@H]1CCN1c1nc(N2C[C@@H]3[C@@H](CC(=O)O)[C@@H]3C2)cc2nc(C#N)cnc12 [Example 46, 2-((1R,5S,6R)-3-(2-cyano-5-((S)-2-methylazetidine-1-yl)pyridino[3,4-b]pyrazin-7-yl)-3-azabicyclo[3.1.0]hexan-6-yl)acetic acid]	30.2
